Assay results reported in article PMC6925601 (European journal of medicinal chemistry, 2019).

Columns and labels:
MKK7 = biological target: T1, MKK7 (Homo sapiens, UniProt O14733); test: KINOMEscan kinase binding assay; conditions: for Kd (μM) vs MKK7: KINOMEscan, duplicate, maximum concentration 30 μM
T1 sequence (O14733 1-419): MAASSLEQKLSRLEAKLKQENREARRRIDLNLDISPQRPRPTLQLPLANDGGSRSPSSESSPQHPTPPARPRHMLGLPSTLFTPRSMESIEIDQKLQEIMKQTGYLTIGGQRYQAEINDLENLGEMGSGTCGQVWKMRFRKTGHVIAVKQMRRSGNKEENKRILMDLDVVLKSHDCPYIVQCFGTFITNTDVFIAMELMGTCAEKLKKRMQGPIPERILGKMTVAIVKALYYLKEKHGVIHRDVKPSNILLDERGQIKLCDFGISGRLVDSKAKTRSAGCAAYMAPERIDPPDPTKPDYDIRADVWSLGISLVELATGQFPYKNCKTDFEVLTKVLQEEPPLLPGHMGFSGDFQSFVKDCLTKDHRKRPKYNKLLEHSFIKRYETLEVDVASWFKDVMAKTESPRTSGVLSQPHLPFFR

[1] = biological target: T2, human neutrophil elastase (HNE) (Homo sapiens, UniProt P08246); test: HNE inhibitory assay; assay type: biochemical
T2 sequence (P08246 30-247 limits assumed): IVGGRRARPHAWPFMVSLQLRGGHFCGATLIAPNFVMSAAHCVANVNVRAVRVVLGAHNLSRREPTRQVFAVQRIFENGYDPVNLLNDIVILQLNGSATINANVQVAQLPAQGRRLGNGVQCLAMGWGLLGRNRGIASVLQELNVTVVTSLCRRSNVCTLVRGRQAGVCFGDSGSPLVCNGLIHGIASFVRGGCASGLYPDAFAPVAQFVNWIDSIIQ

[2] = tested on: nine tumor cell lines and primary PBMCs; test: Cytotoxicity across the panel of nine tumor cell lines and PBMCs; assay type: cell-based, human; conditions: 24 h; for IC50: Homo sapiens, PBMC, read-out: cytotoxic activity IC50 for most of the cell lines
MKK4 = biological target: T3, MKK4 (Homo sapiens, UniProt P45985); test: KINOMEscan kinase binding assay; conditions: for Kd for MKK4: KINOMEscan, data not shown
T3 sequence (P45985 1-399): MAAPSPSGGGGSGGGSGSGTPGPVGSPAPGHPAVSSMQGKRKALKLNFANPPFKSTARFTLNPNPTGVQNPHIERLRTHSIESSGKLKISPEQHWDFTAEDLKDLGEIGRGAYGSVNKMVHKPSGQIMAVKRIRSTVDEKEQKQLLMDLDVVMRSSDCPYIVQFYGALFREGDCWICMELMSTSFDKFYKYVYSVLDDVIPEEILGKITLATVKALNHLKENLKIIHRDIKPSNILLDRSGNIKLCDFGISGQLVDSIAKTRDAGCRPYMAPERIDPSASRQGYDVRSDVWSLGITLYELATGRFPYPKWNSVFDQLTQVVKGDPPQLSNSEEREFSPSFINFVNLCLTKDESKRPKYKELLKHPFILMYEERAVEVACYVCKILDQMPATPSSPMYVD

Cdc25B = biological target: T4, Cdc25B (Homo sapiens, UniProt P30305); test: CycLex Cdc25B fluorometric phosphatase inhibition assay; assay type: biochemical
T4 sequence (P30305 1-580): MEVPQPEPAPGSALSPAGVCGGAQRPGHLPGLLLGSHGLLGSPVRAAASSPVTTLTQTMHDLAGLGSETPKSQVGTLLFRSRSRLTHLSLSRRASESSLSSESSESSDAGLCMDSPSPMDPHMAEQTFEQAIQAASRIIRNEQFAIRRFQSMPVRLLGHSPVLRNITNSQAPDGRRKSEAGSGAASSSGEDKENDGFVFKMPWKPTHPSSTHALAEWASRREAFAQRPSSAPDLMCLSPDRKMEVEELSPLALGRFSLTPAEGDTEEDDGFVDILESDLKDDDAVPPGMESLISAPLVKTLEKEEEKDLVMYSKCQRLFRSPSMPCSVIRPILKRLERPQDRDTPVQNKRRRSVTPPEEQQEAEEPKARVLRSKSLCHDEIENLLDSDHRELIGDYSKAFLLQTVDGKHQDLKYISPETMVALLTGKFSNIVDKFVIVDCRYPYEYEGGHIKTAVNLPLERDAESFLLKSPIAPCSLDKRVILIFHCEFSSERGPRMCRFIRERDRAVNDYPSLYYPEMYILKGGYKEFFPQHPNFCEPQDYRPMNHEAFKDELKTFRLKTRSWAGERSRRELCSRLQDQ

Row | Structure (SMILES) | IC50 [1] [µM] | IC50 [2] [µM] | further results
1 | CC(C)=CC[C@@H](O)C1=CC(=O)c2c(O)ccc(O)c2C1=O [Compound 1, Shikonin] | > 50 |  | Kd (MKK7): > 30 µM; Kd (μM) vs MKK7 (MKK7): did not bind
2 | CC1=CC(=O)c2c(O)cccc2C1=O [Compound 2, Plumbagin, reference compound] | > 50 | < 10 | 
3 | CC(SC1=CC(=O)c2ccccc2C1=O)C(=O)O (stereo not shown) [Compound 8] |  |  | Kd for MKK4 (MKK4): No MKK4 binding affinity
4 | CCSC1=C(C)C(=O)c2ccccc2C1=O [Compound 10] | > 50 | < 10 | 
5 | COCCSC1=C(C)C(=O)c2ccccc2C1=O [Compound 11] | > 50 | < 10 | 
6 | CC1=C(SC(C)C)C(=O)c2ccccc2C1=O [Compound 12] | > 50 | < 10 | 
7 | CSC1=C(SC)C(=O)c2ccccc2C1=O [Compound 13] | > 50 | < 10 | 
8 | COC1=C(OC)C(=O)c2ccccc2C1=O [Compound 15] | > 50 |  | Kd (μM) vs MKK7 (MKK7): almost complete loss of binding affinity
9 | COC1=CC(=O)c2ccccc2C1=O [Compound 16] | > 50 |  | 
10 | O=C1C(O)=C(CN(CCCl)CCCl)C(=O)c2ccccc21 [Compound 19] | > 50 |  | 
11 | O=C(O)c1cccc(NC2=C(Cl)C(=O)c3ccccc3C2=O)c1 [Compound 22e, 3-(3-Chloro-1,4-dioxo-1,4-dihydro-naphthalen-2-ylamino)-benzoic acid] | > 50 | < 10 | Kd for MKK4 (MKK4): No MKK4 binding affinity
12 | O=C(O)c1ccc(NC2=C(Cl)C(=O)c3ccccc3C2=O)cc1 [Compound 22f, 4-(3-Chloro-1,4-dioxo-1,4-dihydro-naphthalen-2-ylamino)-benzoic acid] | > 50 | < 10 | 
13 | COC(=O)c1ccc(NC2=C(Cl)C(=O)c3ccccc3C2=O)cc1 [Compound 22g, 4-(3-Chloro-1,4-dioxo-1,4-dihydro-naphthalen-2-ylamino)-benzoic acid methyl ester] | > 50 |  | 
14 | O=C1C(Cl)=C(NCCCO)C(=O)c2ccccc21 [Compound 23b, 2-Chloro-3-(3-hydroxy-propylamino)-1,4-naphthoquinone] | > 50 |  | IC50 (Cdc25B): > 50 µM
15 | COC(=O)c1ccc(NC2=C(N3CCCCC3)C(=O)c3ccccc3C2=O)cc1 [Compound 25a, 4-(1,4-Dioxo-3-piperidin-1-yl-1,4-dihydro-naphthalen-2-ylamino)-benzoic acid methyl ester] | > 50 |  | Kd (MKK7): > 30 µM

The next lines start with results.

Row | IC50 [1] [µM] | Structure (SMILES) | IC50 [2] [µM] | further results
16 | > 50 | CC1=C(SCCO)C(=O)c2ccccc2C1=O [Compound 5, reference compound] |  | Kd (MKK7): > 30 µM
17 | > 50 | O=C(O)CSC1=CC(=O)c2ccccc2C1=O [Compound 6] |  | cytotoxicity toward tumor cell lines and PBMCs (in words) ([2]; up to 50 μM): weakly active or inactive; Kd (MKK4): 19.5 ± 0.7 µM
18 | > 50 | O=C(O)CCSC1=CC(=O)c2ccccc2C1=O [Compound 7, 3-[(1,4-dioxonaphthalen-2-yl)sulfanyl]propanoic acid] |  | Kd for MKK4 (MKK4): No MKK4 binding affinity; fold more active than 6 (MKK7) (MKK7; compared with compound 6): 6 fold
19 | > 50 | CC1=C(SCCC(=O)O)C(=O)c2ccccc2C1=O [Compound 9, vitamin ks-II, reference compound] |  | 
20 | > 50 | CC1=CC(=O)c2ccccc2C1=O [Compound 18, menadione, reference compound] | < 10 | Kd (MKK7): > 30 µM; Kd (μM) vs MKK7 (MKK7): did not bind
21 | > 50 | O=C(O)CNC1=C(Cl)C(=O)c2ccccc2C1=O [Compound 22a, (3-Chloro-1,4-dioxo-1,4-dihydro-naphthalen-2-ylamino)-acetic acid] |  | IC50 (Cdc25B): > 50 µM
22 | > 50 | O=C(O)CCCNC1=C(Cl)C(=O)c2ccccc2C1=O [Compound 22c, 4-(3-Chloro-1,4-dioxo-1,4-dihydro-naphthalen-2-ylamino)-butyric acid] |  | 
23 | > 50 | O=C1C(Cl)=C(NCCO)C(=O)c2ccccc21 [Compound 23a, 2-Chloro-3-(2-hydroxy-ethylamino)-1,4-naphthoquinone] |  | IC50 (Cdc25B): > 50 µM
